Values of other authors, collected in patent US20240050950A1, “GRADIENT-BASED MICROFLUIDIC CIRCUIT, DEVICE, AND METHOD FOR PERFORMING AN ASSAY” (priority 2020, published 2024).
Where a name gives a salt, the structure may show the parent alone. Read-outs that look alike come from different tables or passages of the source.

Settings: cited from earlier work
[1] = Table 1, antimicrobial agents/drugs

Compound | Molar volume [1] [cm^3] | further results
CO[C@@H]1[C@@H](OC(N)=O)[C@@H](O)[C@H](Oc2ccc3c(O)c(NC(=O)c4ccc(O)c(CC=C(C)C)c4)c(=O)oc3c2C)OC1(C)C [Novobiocin] | 430.9 ± 5.0 | –
C[C@@H]1[C@H](O)[C@@H](C)/C=C/C=C/CC/C=C/C=C/C=C/C=C/C(O[C@H]2O[C@H](C)[C@@H](O)[C@H](N)[C@@H]2O)CC2O[C@](O)(CC(O)C(O)CCC(O)CC(O)CC(O)CC(=O)O[C@H]1C)CC(O)C2C(=O)O (some centres unmarked) [Nystatin (Fungicidin, Mycostatin), Nystatin] | 696.1 ± 5.0 | –
C[C@@H]1Cc2c(Cl)cc(C(=O)N[C@@H](Cc3ccccc3)C(=O)O)c(O)c2C(=O)O1 [Ochratoxin A] | 283.2 ± 3.0 | –
Cc1c(C(=O)Nc2ccc(N3C[C@@H](C)O[C@@H](C)C3)nc2)cccc1-c1ccc(OC(F)(F)F)cc1 [Odomzo (Sonidegib), Sonidegib] | – | Molar volume (Table 2, anticancer drugs): 386.7 ± 3.0 cm^3
CC[C@@H]1/C=C/C=C/C[C@H](C)[C@H](O)[C@](C)(O)C(=O)[C@H](C)[C@@H](O)[C@H](C)C(=O)[C@H](C)[C@@H](O)[C@H](C)/C=C/C(=O)O[C@H]2[C@@H](C)[C@@H](CC1)O[C@@]1(CC[C@@H](C)[C@@H](C[C@H](C)O)O1)[C@@H]2C [Oligomycin A] | 688.2 ± 5.0 | Molar volume (Table 3, antifungal drugs and other molecules): 688.2 ± 5.0 cm^3
COC(=O)C[C@](O)(CCCC(C)(C)O)C(=O)O[C@@H]1C(OC)=C[C@]23CCCN2CCc2cc4c(cc2[C@H]13)OCO4 [Omacetaxine Mepesuccinate] | – | Molar volume (Table 2, anticancer drugs): 408.4 ± 5.0 cm^3
C=CC(=O)Nc1cc(Nc2nccc(-c3cn(C)c4ccccc34)n2)c(OC)cc1N(C)CCN(C)C [Osimertinib (Tagrisso), Osimertinib] | – | Molar volume (Table 2, anticancer drugs): 418.4 ± 7.0 cm^3
Cc1onc(-c2ccccc2)c1C(=O)N[C@@H]1C(=O)N2[C@@H]1SC(C)(C)[C@@H]2C(=O)O [Oxacillin] | 268.4 ± 5.0 | –
CCn1cc(C(=O)O)c(=O)c2cc3c(cc21)OCO3 [Oxolinic acid] | 176.1 ± 3.0 | –
N=C1Sc2ccccc2C2=NCCCN12 [PD 404, 182, PD 404,182] | 150.9 ± 7.0 | –
COc1ccc(C[C@H](N)C(=O)N[C@H]2[C@@H](O)[C@H](n3cnc4c(N(C)C)ncnc43)O[C@@H]2CO)cc1 [PUROMYCIN] | 311.7 ± 7.0 | –
O=C1C=C2C(=CCOC2O)O1 (centres unmarked) [Patulin] | 101.3 ± 5.0 | –
N=C(N)c1ccc(OCCCCCOc2ccc(C(=N)N)cc2)cc1 [Pentamidine] | 281.4 ± 7.0 | –
c1ccc2nc3ccccc3nc2c1 [Phenazine] | 144.1 ± 3.0 | –
C[C@@H]1O[C@@H]1P(=O)(O)O [Phosphomycin (Fosfomycin), Phosphomycin] | 88.4 ± 5.0 | –
CCn1cc(C(=O)O)c(=O)c2cnc(N3CCNCC3)nc21 [Pipemidic acid] | 219.6 ± 3.0 | –
COc1cccc2c1C(=O)c1c(O)c3c(c(O)c1C2=O)C[C@@](O)(C(=O)CO)C[C@@H]3O[C@H]1C[C@H](N)[C@H](O[C@@H]2CCCCO2)[C@H](C)O1 [Pirarubicin (THP), Pirarubicin] | 413.3 ± 5.0 | –
Nc1cccc2c1C(=O)N(C1CCC(=O)NC1=O)C2=O (centres unmarked) [Pomalidomide] | – | Molar volume (Table 2, anticancer drugs): 173.9 ± 3.0 cm^3
O=C(C1CCCCC1)N1CC(=O)N2CCc3ccccc3C2C1 (centres unmarked) [Praziquantel] | 254.2 ± 5.0 | –
CCCc1cc(C(N)=S)ccn1 [Prothionamide] | 158.5 ± 3.0 | –

Compound | Molar volume [1] [cm^3] | further results
NC(=O)c1cnccn1 [Pyrazinecarboxamide] | 87.7 ± 7.0 | –
COc1ccc2nc3cc(Cl)ccc3c(Nc3cc(CN4CCCC4)c(O)c(CN4CCCC4)c3)c2n1 [Pyronaridine] | 381.8 ± 3.0 | –
O=[N+]([O-])c1c(Cl)cccc1-c1c[nH]cc1Cl [Pyrrolnitrin] | 168.7 ± 3.0 | –
C[C@@H]1C[C@H]2O[C@@H]2/C=C\C=C\C(=O)Cc2c(Cl)c(O)cc(O)c2C(=O)O1 [Radicicol] | 267.3 ± 3.0 | –
CNC(=O)c1cc(Oc2ccc(NC(=O)Nc3ccc(Cl)c(C(F)(F)F)c3)c(F)c2)ccn1 [Regorafenib] | – | Molar volume (Table 2, anticancer drugs): 323.6 ± 3.0 cm^3
NC(=O)c1ncn([C@@H]2O[C@H](CO)[C@@H](O)[C@H]2O)n1 [Ribavirin] | 117.0 ± 7.0 | –
NC[C@H]1O[C@H](O[C@H]2[C@H](O[C@@H]3O[C@H](CO)[C@@H](O)[C@H]3O)[C@@H](O)[C@H](N)C[C@@H]2N)[C@H](N)[C@@H](O)[C@@H]1O [Ribostamycin] | 283.6 ± 5.0 | –
CO[C@H]1/C=C/O[C@@]2(C)Oc3c(C)c(O)c4c(c3C2=O)C2=NC3(CCN(CC(C)C)CC3)NC2=C(NC(=O)/C(C)=C\C=C\[C@H](C)[C@H](O)[C@@H](C)[C@@H](O)[C@@H](C)[C@H](OC(C)=O)[C@@H]1C)C4=O [Rifabutin] | 632.4 ± 7.0 | –
CO[C@H]1/C=C/O[C@@]2(C)Oc3c(C)c(O)c4c(O)c(c(/C=N/N5CCN(C6CCCC6)CC5)c(O)c4c3C2=O)NC(=O)/C(C)=C\C=C\[C@H](C)[C@H](O)[C@@H](C)[C@@H](O)[C@@H](C)[C@H](OC(C)=O)[C@@H]1C [Rifapentine (DL 473), Rifapentine] | 648.0 ± 7.0 | –
C[C@@H](OC[C@@]1(c2ccccc2)CC[C@]2(CCC(=O)N2)CN1)c1cc(C(F)(F)F)cc(C(F)(F)F)c1 [Rolapitant Hydrochloride] | – | Molar volume (Table 2, anticancer drugs): 373.3 ± 5.0 cm^3
CC[C@H]1OC(=O)[C@H](C)[C@@H](O[C@H]2C[C@@](C)(OC)[C@@H](O)[C@H](C)O2)[C@H](C)[C@@H](O[C@@H]2O[C@H](C)C[C@H](N(C)C)[C@H]2O)[C@](C)(O)C[C@@H](C)/C(=N\OCOCCOC)[C@H](C)[C@@H](O)[C@]1(C)O [Roxithromycin] | 666.3 ± 7.0 | –
N#CC[C@H](C1CCCC1)n1cc(-c2ncnc3[nH]ccc23)cn1 [Ruxolitinib phosphate] | – | Molar volume (Table 2, anticancer drugs): 218.6 ± 7.0 cm^3
CC[C@@H](C(=O)[C@@H](C)[C@@H](O)[C@H](C)[C@@H]1O[C@@H]([C@@H](CC)C(=O)O)CC[C@@H]1C)[C@H]1O[C@]2(C=C[C@@H](O)[C@]3(CC[C@@](C)([C@H]4CC[C@](O)(CC)[C@H](C)O4)O3)O2)[C@H](C)C[C@@H]1C [Salinomycin] | 633.5 ± 5.0 | –
C/C=C/C=C/C(=O)O [Sorbic acid] | 109.4 ± 3.0 | –
CO[C@H]1[C@@H](O)[C@H](O)[C@H](OC[C@@]23C[C@@H]4[C@H](C)CC[C@H]4[C@@]4(C=O)CC2C=C(C(C)C)[C@@]34C(=O)O)O[C@@H]1C [Sordarin] | 381.1 ± 5.0 | –
C[C@@H]1CN(c2c(F)c(N)c3c(=O)c(C(=O)O)cn(C4CC4)c3c2F)C[C@H](C)N1 [Sparfloxacin] | 273.2 ± 3.0 | –
CN[C@@H]1[C@H](O)[C@H](NC)[C@H]2O[C@@]3(O)C(=O)C[C@@H](C)O[C@H]3O[C@@H]2[C@H]1O [Spectinomycin] | 231.6 ± 5.0 | –
N=C(N)NCCCC[C@H](O)CC(=O)NC(O)C(=O)NCCCCNCCCN (some centres unmarked) [Spergualin] | 304.4 ± 7.0 | –
CN[C@@H]1C[C@H]2O[C@@](C)([C@@H]1OC)n1c3ccccc3c3c4c(c5c6ccccc6n2c5c31)C(=O)NC4 [Staurosporine (Staurosporine), Staurosporine] | 298.7 ± 7.0 | –
[H]/N=C(/N)N[C@H]1[C@H](O)[C@@H](O)[C@H](O[C@@H]2O[C@@H](C)[C@](O)(C=O)[C@H]2O[C@@H]2O[C@@H](CO)[C@H](O)[C@@H](O)[C@@H]2NC)[C@@H](N/C(N)=N\[H])[C@@H]1O [Streptomycin] | 293.4 ± 7.0 | –
